Source: US9211292B2, “Preventing or reducing drug abuse and overdose events” (ALITAIR PHARMACEUTICALS INC, priority 2011, dated 2015)

Assay: Dissolution testing, simulated empty stomach (USP 31 NF26 Apparatus 2, 0.1N HCl)
Type: physicochemical
Details: for HCBT Released / HCBT Released, Percent of Original Dose: 80 mg dose, 0.1N HCl 250 ml 37° C.
Method: The resinate or pure HCBT was weighed to determine the dose to be tested. The resinate or pure HCBT powder was added directly to the vessel for dissolution testing without the use of a capsule or tablet and its associated excipients. The conditions in the first stage to simulate dissolution in an empty stomach were as follows:
The above resinate of the invention having an 11.5% HCBT loading was tested at dosages of 10 mg, 40 mg and 80 mg HCBT. The resinate of the invention having 60.7% HCBT loading was tested at dosages of 10 and 80 mg HCBT. […] A given dose was placed in the dissolution apparatus and stirred for a given length of time. At the end of that time, the quantity of HCBT released was determined by high pressure liquid chromatography.

Question: What does the source list for `COc1ccc2c3c1O[C@H]1C(=O)CC[C@H]4[C@@H](C2)N(C)CC[C@]314` [Pure HCBT, Hydrocodone bitartrate]?
Answer: drug released (FIG. 1) (80 mg dosage in powder form, simulated empty stomach): released essentially all of the drug; HCBT Released (15 min): 78.8 mg; HCBT Released, Percent of Original Dose (15 min): 98.6% of Original Dose; HCBT Released (30 min): 79.2 mg; HCBT Released, Percent of Original Dose (30 min): 99.0% of Original Dose; HCBT Released (45 min): 79.4 mg; HCBT Released, Percent of Original Dose (45 min): 99.2% of Original Dose; HCBT Released (60 min): 79.6 mg; HCBT Released, Percent of Original Dose (60 min): 99.5% of Original Dose
